# Measurements taken from US20250163104A1, “MACROCYCLIC IMMUNOMODULATORS” (priority 2021, published 2025).
# Where a SMILES comes first, the peptide text is derived from it. Bridges are numbered along the chain shown (N, C = ends). [ ]: non-standard residue; d: D form. The star is where a group is joined. ξ: configuration not given here. Phe(4-CF3) = N[C@@H](Cc1ccc(C(F)(F)F)cc1)C(=O)O; Phe(4-COOH) = N[C@@H](Cc1ccc(C(=O)O)cc1)C(=O)O; Bip = N[C@@H](Cc1ccc(-c2ccccc2)cc1)C(=O)O; Phe(3-Me) = Cc1cccc(C[C@H](N)C(=O)O)c1; Phe(4-F) = N[C@@H](Cc1ccc(F)cc1)C(=O)O; Val(3-OH) = CC(C)(O)[C@H](N)C(=O)O; Cha = N[C@@H](CC1CCCCC1)C(=O)O; Thr(3ξ) = CC(O)[C@H](N)C(=O)O; NMeNle = CCCC[C@H](NC)C(=O)O; Carboxymethyl = O=C(O)C*; NMeA = CN[C@@H](C)C(=O)O; NMeAib = CNC(C)(C)C(=O)O; Nle = CCCC[C@H](N)C(=O)O; Orn = NCCC[C@H](N)C(=O)O; Pra = C#CC[C@H](N)C(=O)O; Dab = NCC[C@H](N)C(=O)O; CF3 = FC(F)(F)*
# Target: T1, human PD-1 / PD-L1-Ig binding on Jurkat cell line over-expressing human PD-1 (Jurkat-PD-1) (Homo sapiens, UniProt Q15116)
# T1 construct: expressed in transfected cells; host or cells: Jurkat
# T1 sequence (Q15116 25-288): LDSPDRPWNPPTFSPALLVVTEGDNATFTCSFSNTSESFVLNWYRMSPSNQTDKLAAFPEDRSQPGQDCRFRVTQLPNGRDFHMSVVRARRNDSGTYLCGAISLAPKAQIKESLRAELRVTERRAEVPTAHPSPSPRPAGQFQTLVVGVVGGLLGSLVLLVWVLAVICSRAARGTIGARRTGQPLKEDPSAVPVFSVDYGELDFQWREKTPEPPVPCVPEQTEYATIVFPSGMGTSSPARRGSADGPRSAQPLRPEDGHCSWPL
# Test: Jurkat-PD-1 Cell Binding High-Content Screening Assay (CBA)
# Assay type: cell-based
# Details: Jurkat-PD-1 cells, PE-labeled PD-L1-Ig 20 nM final; read-out: Jurkat HPD1_PDL1 IC50
# Method in brief: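 Jurkat-hPD-1 cells in DMEM with 10% fetal calf serum receive test compound and are held at 37° C for 2 h. PE-labeled PD-L1-Ig is added at 20 nM final and left for 1 hour. Cells are then fixed and Hoechst-stained, and binding is measured by imaging.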
row,IC50,Compound
1,1.9 nM,Cc1cccc(C[C@@H]2NC(=O)[C@H](CC(=O)O)NC(=O)[C@H](Cc3ccc(C(=O)O)cc3)NC(=O)[C@H](Cc3ccc(F)cc3)NC(=O)CSC[C@@H](C(=O)N[C@@H](CCN)C(N)=O)NC(=O)[C@H](Cc3cnc[nH]3)NC(=O)[C@H](C(C)(C)O)NC(=O)[C@H](CC3CCCCC3)NC(=O)[C@H](CCN)NC(=O)[C@@H](CC(C)C)NC(=O)[C@H](CCCN)NC(=O)[C@H](Cc3ccc(OCC(=O)O)cc3)NC(=O)[C@H](Cc3ccc(-c4ccccc4)cc3)NC(=O)[C@H](Cc3ccc(OCC(=O)O)cc3)NC2=O)c1 [Compound 2684] ({CH2CO}-[Phe(4-F)][Phe(4-COOH)]D[Phe(3-Me)]Y(Carboxymethyl)[Bip]Y(Carboxymethyl)[Orn][dL][Dab][Cha][Val(3-OH)]HC[Dab]-NH2; thioether N-14)
2,6 nM,Cc1cccc(C[C@@H]2NC(=O)[C@H](CC(=O)O)NC(=O)[C@H](Cc3ccc(F)cc3)NC(=O)[C@H](C(C)O)NC(=O)CSC[C@@H](C(=O)N[C@@H](CCN)C(N)=O)NC(=O)[C@H](C(C)O)NC(=O)[C@H](C(C)(C)O)NC(=O)[C@H](CC3CCCCC3)NC(=O)[C@H](CCN)NC(=O)[C@@H](CC(C)C)NC(=O)[C@H](CCCN)NC(=O)[C@H](Cc3ccc(C(=O)O)cc3)NC(=O)[C@H](Cc3ccc(-c4ccccc4)cc3)NC(=O)[C@H](Cc3ccc(C(=O)O)cc3)NC2=O)c1 (stereo partly drawn) [Compound 2685] ({CH2CO}-[Thr(3ξ)][Phe(4-F)]D[Phe(3-Me)][Phe(4-COOH)][Bip][Phe(4-COOH)][Orn][dL][Dab][Cha][Val(3-OH)][Thr(3ξ)]C[Dab]-NH2; thioether N-14)
3,33.3 nM,C#CC[C@H](NC(=O)[C@@H]1CSCC(=O)N[C@@H](CCN)C(=O)N[C@@H](Cc2ccc(OCC(=O)O)cc2)C(=O)N[C@@H](CC(=O)O)C(=O)N[C@@H](Cc2cccc(C)c2)C(=O)N[C@@H](Cc2ccc(OCC(=O)O)cc2)C(=O)N[C@@H](Cc2ccc(-c3ccccc3)cc2)C(=O)N[C@@H](Cc2ccc(OCC(=O)O)cc2)C(=O)N[C@@H](CCCN)C(=O)N[C@H](CC(C)C)C(=O)N[C@@H](CCN)C(=O)N[C@@H](CC2CCCCC2)C(=O)N[C@@H](C(C)(C)O)C(=O)N[C@@H](CCCN)C(=O)N1)C(=O)O [Compound 2686] ({CH2CO}-[Dab]Y(Carboxymethyl)D[Phe(3-Me)]Y(Carboxymethyl)[Bip]Y(Carboxymethyl)[Orn][dL][Dab][Cha][Val(3-OH)][Orn]C[Pra]-OH; thioether N-14)
4,0.4 nM,CCCC[C@@H]1NC(=O)CSC[C@@H](C(=O)N[C@@H](CCN)C(N)=O)NC(=O)[C@H](CO)NC(=O)[C@H](C(C)(C)O)NC(=O)[C@H](CC2CCCCC2)NC(=O)[C@H](CCN)NC(=O)[C@@H](CC(C)C)NC(=O)[C@H](CCCN)NC(=O)[C@H](Cc2ccc(OCC(=O)O)cc2)NC(=O)[C@H](Cc2ccc(-c3ccccc3)cc2)NC(=O)[C@H](Cc2ccc(OCC(=O)O)cc2)NC(=O)[C@H](Cc2cccc(C)c2)NC(=O)[C@H](CC(=O)O)NC(=O)[C@H](Cc2ccc(OCC(=O)O)cc2)NC1=O [Compound 2687] ({CH2CO}-[Nle]Y(Carboxymethyl)D[Phe(3-Me)]Y(Carboxymethyl)[Bip]Y(Carboxymethyl)[Orn][dL][Dab][Cha][Val(3-OH)]SC[Dab]-NH2; thioether N-14)
5,41.3 nM,CCCC[C@H]1C(=O)N[C@@H](Cc2ccc(C(=O)O)cc2)C(=O)N[C@@H](CC(=O)O)C(=O)N[C@@H](Cc2cccc(C)c2)C(=O)N[C@@H](Cc2ccc(OCC(=O)O)cc2)C(=O)N[C@@H](Cc2ccc(-c3ccccc3)cc2)C(=O)N[C@@H](Cc2ccc(OCC(=O)O)cc2)C(=O)N[C@@H](CCCN)C(=O)N[C@H](CC(C)C)C(=O)N[C@@H](CCN)C(=O)N[C@@H](CC2CCCCC2)C(=O)N[C@@H](C(C)(C)O)C(=O)N[C@@H](CCC(=O)O)C(=O)N[C@H](C(=O)N[C@@H](CCN)C(N)=O)CSCC(=O)N1C [Compound 2688] ({CH2CO}-[NMeNle][Phe(4-COOH)]D[Phe(3-Me)]Y(Carboxymethyl)[Bip]Y(Carboxymethyl)[Orn][dL][Dab][Cha][Val(3-OH)]EC[Dab]-NH2; thioether N-14)
6,411 nM,Cc1cccc(C[C@@H]2NC(=O)[C@H](CC(=O)O)NC(=O)[C@H](Cc3ccc(C(=O)O)cc3)NC(=O)C(C)(C)N(C)C(=O)CSC[C@@H](C(=O)N[C@@H](CCN)C(N)=O)NC(=O)[C@H](CCC(=O)O)NC(=O)[C@H](C(C)(C)O)NC(=O)[C@H](CC3CCCCC3)NC(=O)[C@H](CCN)NC(=O)[C@@H](CC(C)C)NC(=O)[C@H](CCCN)NC(=O)[C@H](Cc3ccc(OCC(=O)O)cc3)NC(=O)[C@H](Cc3ccc(-c4ccccc4)cc3)NC(=O)[C@H](Cc3ccc(OCC(=O)O)cc3)NC2=O)c1 [Compound 2689] ({CH2CO}-[NMeAib][Phe(4-COOH)]D[Phe(3-Me)]Y(Carboxymethyl)[Bip]Y(Carboxymethyl)[Orn][dL][Dab][Cha][Val(3-OH)]EC[Dab]-NH2; thioether N-14)
7,481 nM,Cc1cccc(C[C@@H]2NC(=O)[C@H](CC(=O)O)NC(=O)[C@H](Cc3ccc(C(=O)O)cc3)NC(=O)[C@H](C)N(C)C(=O)CSC[C@@H](C(=O)N[C@@H](CCN)C(N)=O)NC(=O)[C@H](CCC(=O)O)NC(=O)[C@H](C(C)(C)O)NC(=O)[C@H](CC3CCCCC3)NC(=O)[C@H](CCN)NC(=O)[C@@H](CC(C)C)NC(=O)[C@H](CCCN)NC(=O)[C@H](Cc3ccc(OCC(=O)O)cc3)NC(=O)[C@H](Cc3ccc(-c4ccccc4)cc3)NC(=O)[C@H](Cc3ccc(OCC(=O)O)cc3)NC2=O)c1 [Compound 2690] ({CH2CO}-[NMeA][Phe(4-COOH)]D[Phe(3-Me)]Y(Carboxymethyl)[Bip]Y(Carboxymethyl)[Orn][dL][Dab][Cha][Val(3-OH)]EC[Dab]-NH2; thioether N-14)
8,6.8 nM,Cc1cccc(C[C@@H]2NC(=O)[C@H](CC(=O)O)NC(=O)[C@H](Cc3ccc(OCC(=O)O)cc3)NC(=O)[C@H](Cc3ccc(C(F)(F)F)cc3)NC(=O)CSC[C@@H](C(=O)N[C@@H](CCN)C(N)=O)NC(=O)[C@H](CCC(=O)O)NC(=O)[C@H](C(C)(C)O)NC(=O)[C@H](CC3CCCCC3)NC(=O)[C@H](CCN)NC(=O)[C@@H](CC(C)C)NC(=O)[C@H](CCCN)NC(=O)[C@H](Cc3ccc(OCC(=O)O)cc3)NC(=O)[C@H](Cc3ccc(-c4ccccc4)cc3)NC(=O)[C@H](Cc3ccc(OCC(=O)O)cc3)NC2=O)c1 [Compound 2691] ({CH2CO}-[Phe(4-CF3)]Y(Carboxymethyl)D[Phe(3-Me)]Y(Carboxymethyl)[Bip]Y(Carboxymethyl)[Orn][dL][Dab][Cha][Val(3-OH)]EC[Dab]-NH2; thioether N-14)
9,4.7 nM,COc1ccc(C[C@@H]2NC(=O)CSC[C@@H](C(=O)N[C@@H](CCN)C(N)=O)NC(=O)[C@H](CCC(=O)O)NC(=O)[C@H](C(C)(C)O)NC(=O)[C@H](CC3CCCCC3)NC(=O)[C@H](CCN)NC(=O)[C@@H](CC(C)C)NC(=O)[C@H](CCCN)NC(=O)[C@H](Cc3ccc(OCC(=O)O)cc3)NC(=O)[C@H](Cc3ccc(-c4ccccc4)cc3)NC(=O)[C@H](Cc3ccc(OCC(=O)O)cc3)NC(=O)[C@H](Cc3cccc(C)c3)NC(=O)[C@H](CC(=O)O)NC(=O)[C@H](Cc3ccc(OCC(=O)O)cc3)NC2=O)cc1 [Compound 2692] ({CH2CO}-Y(Me)Y(Carboxymethyl)D[Phe(3-Me)]Y(Carboxymethyl)[Bip]Y(Carboxymethyl)[Orn][dL][Dab][Cha][Val(3-OH)]EC[Dab]-NH2; thioether N-14)
10,42.4 nM,Cc1cccc(C[C@@H]2NC(=O)[C@H](CC(=O)O)NC(=O)[C@H](Cc3ccc(OC(F)(F)F)cc3)NC(=O)[C@H](CCN)NC(=O)CSC[C@@H](C(=O)N[C@@H](CCN)C(N)=O)NC(=O)[C@H](CCC(=O)O)NC(=O)[C@H](C(C)(C)O)NC(=O)[C@H](CC3CCCCC3)NC(=O)[C@H](CCN)NC(=O)[C@@H](CC(C)C)NC(=O)[C@H](CCCN)NC(=O)[C@H](Cc3ccc(OCC(=O)O)cc3)NC(=O)[C@H](Cc3ccc(-c4ccccc4)cc3)NC(=O)[C@H](Cc3ccc(OCC(=O)O)cc3)NC2=O)c1 [Compound 2693] ({CH2CO}-[Dab]Y(CF3)D[Phe(3-Me)]Y(Carboxymethyl)[Bip]Y(Carboxymethyl)[Orn][dL][Dab][Cha][Val(3-OH)]EC[Dab]-NH2; thioether N-14)
11,16.5 nM,Cc1cccc(C[C@@H]2NC(=O)[C@H](CC(=O)O)NC(=O)[C@H](Cc3ccc(OCC(=O)O)cc3)NC(=O)[C@H](CCN)NC(=O)CSC[C@@H](C(=O)N[C@@H](CCN)C(N)=O)NC(=O)[C@H](CCC(=O)O)NC(=O)[C@H](C(C)(C)O)NC(=O)[C@H](CC3CCCCC3)NC(=O)[C@H](CCN)NC(=O)[C@@H](CC(C)C)NC(=O)[C@H](CCCN)NC(=O)[C@H](Cc3ccc(OC(F)(F)F)cc3)NC(=O)[C@H](Cc3ccc(-c4ccccc4)cc3)NC(=O)[C@H](Cc3ccc(OCC(=O)O)cc3)NC2=O)c1 [Compound 2694] ({CH2CO}-[Dab]Y(Carboxymethyl)D[Phe(3-Me)]Y(Carboxymethyl)[Bip]Y(CF3)[Orn][dL][Dab][Cha][Val(3-OH)]EC[Dab]-NH2; thioether N-14)
12,17.1 nM,C#CC[C@H](NC(=O)[C@H](C)NC(=O)[C@@H]1CSCC(=O)N[C@@H](CCN)C(=O)N[C@@H](Cc2ccc(OCC(=O)O)cc2)C(=O)N[C@@H](CC(=O)O)C(=O)N[C@@H](Cc2cccc(C)c2)C(=O)N[C@@H](Cc2ccc(OCC(=O)O)cc2)C(=O)N[C@@H](Cc2ccc(-c3ccccc3)cc2)C(=O)N[C@@H](Cc2ccc(OCC(=O)O)cc2)C(=O)N[C@@H](CCCN)C(=O)N[C@H](CC(C)C)C(=O)N[C@@H](CCN)C(=O)N[C@@H](CC2CCCCC2)C(=O)N[C@@H](C(C)(C)O)C(=O)N[C@@H](CCCC)C(=O)N1)C(=O)O [Compound 2696] ({CH2CO}-[Dab]Y(Carboxymethyl)D[Phe(3-Me)]Y(Carboxymethyl)[Bip]Y(Carboxymethyl)[Orn][dL][Dab][Cha][Val(3-OH)][Nle]CA[Pra]-OH; thioether N-14)
